The supplement of paper PMC10307832

What was measured:
Test in all cases: relative viability (nuclei count vs DMSO), 5 days (fraction); higher = more cells survive
A-427 = tested on: A-427
In short: (§1)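 For relative viability, nuclei counts in treated wells were divided by those in vehicle wells. Lung cancer cell lines had been pin-tool dosed in 1536-well plates the day after seeding and cultured for 5 days, then fixed and stained in one step (final 0.05% Triton X-100, 1% formaldehyde, 1 ug/ml Hoechst) and imaged at 4×. Doses were one drug alone or a fixed anchor-drug dose plus five library-drug doses (not always all listed) in √10 steps, and values are duplicate-plate medians.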

COR-L 105 = tested on: COR-L 105
In short: as §1

EPLC-272H = tested on: EPLC-272H
In short: as §1

HCC-15 = tested on: HCC-15
In short: as §1

HCC-44 = tested on: HCC-44
In short: as §1

LC-2-ad = tested on: LC-2-ad
In short: as §1

LCLC-97TM1 = tested on: LCLC-97TM1
In short: as §1

NCI-H1395 = tested on: NCI-H1395
In short: as §1

NCI-H1734 = tested on: NCI-H1734
In short: as §1

NCI-H1792 = tested on: NCI-H1792
In short: as §1

NCI-H1915 = tested on: NCI-H1915
In short: as §1

NCI-H1975 = tested on: NCI-H1975
In short: as §1

NCI-H2023 = tested on: NCI-H2023
In short: as §1

NCI-H2342 = tested on: NCI-H2342
In short: as §1

NCI-H2347 = tested on: NCI-H2347
In short: as §1

NCI-H2405 = tested on: NCI-H2405
In short: as §1

NCI-H520 = tested on: NCI-H520
In short: as §1

NCI-H838 = tested on: NCI-H838
In short: as §1

SW 1573 = tested on: SW 1573
In short: as §1

SW 900 = tested on: SW 900
In short: as §1

UMC-11 = tested on: UMC-11
In short: as §1

SMILES: Cc1csc(=NC2CCCCC2)n1/N=C/c1ccc(O)c(O)c1O [MIM1] + Nc1ncn([C@H]2C[C@H](O)[C@@H](CO)O2)c(=O)n1 [Decitabine] (partner 2 µM)
- relative viability (A-427; first compound 0.2 µM): 0.583
- relative viability (A-427; first compound 0.6325 µM): 0.578
- relative viability (A-427; first compound 2 µM): 0.572
- relative viability (A-427; first compound 6.325 µM): 0.541
- relative viability (A-427; first compound 20 µM): 0.308
- relative viability (COR-L 105; first compound 0.2 µM): 0.592
- relative viability (COR-L 105; first compound 0.6325 µM): 0.661
- relative viability (COR-L 105; first compound 2 µM): 0.72
- relative viability (COR-L 105; first compound 6.325 µM): 0.571
- relative viability (COR-L 105; first compound 20 µM): 0.571
- relative viability (EPLC-272H; first compound 0.2 µM): 0.36
- relative viability (EPLC-272H; first compound 0.6325 µM): 0.382
- relative viability (EPLC-272H; first compound 2 µM): 0.375
- relative viability (EPLC-272H; first compound 6.325 µM): 0.29
- relative viability (EPLC-272H; first compound 20 µM): 0.154
- relative viability (HCC-15; first compound 0.2 µM): 0.634
- relative viability (HCC-15; first compound 0.6325 µM): 0.607
- relative viability (HCC-15; first compound 2 µM): 0.66
- relative viability (HCC-15; first compound 6.325 µM): 0.341
- relative viability (HCC-15; first compound 20 µM): 0.163
- relative viability (HCC-44; first compound 0.2 µM): 0.905
- relative viability (HCC-44; first compound 0.6325 µM): 0.85
- relative viability (HCC-44; first compound 2 µM): 0.866
- relative viability (HCC-44; first compound 6.325 µM): 0.479
- relative viability (HCC-44; first compound 20 µM): 0.405
- relative viability (LC-2-ad; first compound 0.2 µM): 0.777
- relative viability (LC-2-ad; first compound 0.6325 µM): 0.736
- relative viability (LC-2-ad; first compound 2 µM): 0.868
- relative viability (LC-2-ad; first compound 6.325 µM): 0.453
- relative viability (LC-2-ad; first compound 20 µM): 0.508
- relative viability (LCLC-97TM1; first compound 0.2 µM): 0.245
- relative viability (LCLC-97TM1; first compound 0.6325 µM): 0.238
- relative viability (LCLC-97TM1; first compound 2 µM): 0.234
- relative viability (LCLC-97TM1; first compound 6.325 µM): 0.214
- relative viability (LCLC-97TM1; first compound 20 µM): 0.0699
- relative viability (NCI-H1395; first compound 0.2 µM): 0.708
- relative viability (NCI-H1395; first compound 0.6325 µM): 0.793
- relative viability (NCI-H1395; first compound 2 µM): 0.646
- relative viability (NCI-H1395; first compound 6.325 µM): 0.688
- relative viability (NCI-H1395; first compound 20 µM): 0.427
- relative viability (NCI-H1734; first compound 0.2 µM): 0.458
- relative viability (NCI-H1734; first compound 0.6325 µM): 0.492
- relative viability (NCI-H1734; first compound 2 µM): 0.452
- relative viability (NCI-H1734; first compound 6.325 µM): 0.323
- relative viability (NCI-H1734; first compound 20 µM): 0.178
- relative viability (NCI-H1792; first compound 0.2 µM): 0.574
- relative viability (NCI-H1792; first compound 0.6325 µM): 0.497
- relative viability (NCI-H1792; first compound 2 µM): 0.611
- relative viability (NCI-H1792; first compound 6.325 µM): 0.439
- relative viability (NCI-H1792; first compound 20 µM): 0.411
- relative viability (NCI-H1915; first compound 0.2 µM): 0.263
- relative viability (NCI-H1915; first compound 0.6325 µM): 0.273
- relative viability (NCI-H1915; first compound 2 µM): 0.256
- relative viability (NCI-H1915; first compound 6.325 µM): 0.232
- relative viability (NCI-H1915; first compound 20 µM): 0.245
- relative viability (NCI-H1975; first compound 0.2 µM): 0.384
- relative viability (NCI-H1975; first compound 0.6325 µM): 0.385
- relative viability (NCI-H1975; first compound 2 µM): 0.39
- relative viability (NCI-H1975; first compound 6.325 µM): 0.216
- relative viability (NCI-H1975; first compound 20 µM): 0.137
- relative viability (NCI-H2023; first compound 0.2 µM): 0.24
- relative viability (NCI-H2023; first compound 0.6325 µM): 0.215
- relative viability (NCI-H2023; first compound 2 µM): 0.212
- relative viability (NCI-H2023; first compound 6.325 µM): 0.157
- relative viability (NCI-H2023; first compound 20 µM): 0.0821
- relative viability (NCI-H2342; first compound 0.2 µM): 0.724
- relative viability (NCI-H2342; first compound 0.6325 µM): 0.721
- relative viability (NCI-H2342; first compound 2 µM): 0.708
- relative viability (NCI-H2342; first compound 6.325 µM): 0.664
- relative viability (NCI-H2342; first compound 20 µM): 0.724
- relative viability (NCI-H2347; first compound 0.2 µM): 0.592
- relative viability (NCI-H2347; first compound 0.6325 µM): 0.592
- relative viability (NCI-H2347; first compound 2 µM): 0.64
- relative viability (NCI-H2347; first compound 6.325 µM): 0.574
- relative viability (NCI-H2347; first compound 20 µM): 0.527
- relative viability (NCI-H2405; first compound 0.2 µM): 0.744
- relative viability (NCI-H2405; first compound 0.6325 µM): 0.738
- relative viability (NCI-H2405; first compound 2 µM): 0.771
- relative viability (NCI-H2405; first compound 6.325 µM): 0.561
- relative viability (NCI-H2405; first compound 20 µM): 0.421
- relative viability (NCI-H520; first compound 0.2 µM): 0.574
- relative viability (NCI-H520; first compound 0.6325 µM): 0.485
- relative viability (NCI-H520; first compound 2 µM): 0.526
- relative viability (NCI-H520; first compound 6.325 µM): 0.43
- relative viability (NCI-H520; first compound 20 µM): 0.284
- relative viability (NCI-H838; first compound 0.2 µM): 0.468
- relative viability (NCI-H838; first compound 0.6325 µM): 0.462
- relative viability (NCI-H838; first compound 2 µM): 0.513
- relative viability (NCI-H838; first compound 6.325 µM): 0.394
- relative viability (NCI-H838; first compound 20 µM): 0.221
- relative viability (SW 1573; first compound 0.2 µM): 0.592
- relative viability (SW 1573; first compound 0.6325 µM): 0.516
- relative viability (SW 1573; first compound 2 µM): 0.429
- relative viability (SW 1573; first compound 6.325 µM): 0.306
- relative viability (SW 1573; first compound 20 µM): 0.166
- relative viability (SW 900; first compound 0.2 µM): 0.345
- relative viability (SW 900; first compound 0.6325 µM): 0.482
- relative viability (SW 900; first compound 2 µM): 0.486
- relative viability (SW 900; first compound 6.325 µM): 0.31
- relative viability (SW 900; first compound 20 µM): 0.206
- relative viability (UMC-11; first compound 0.2 µM): 0.565
- relative viability (UMC-11; first compound 0.6325 µM): 0.585
- relative viability (UMC-11; first compound 2 µM): 0.647
- relative viability (UMC-11; first compound 6.325 µM): 0.607
- relative viability (UMC-11; first compound 20 µM): 0.42
